Test results taken from article PMC7932521, “2-aminobenzimidazoles for leishmaniasis: From initial hit discovery to in vivo profiling” (PLoS Neglected Tropical Diseases, 2021).
Read-outs that look alike come from different tables or passages of the source.

Experiments:
[1] = test system: Leishmania infantum MHOM/MA(BE)/67/ITMAP263 amastigotes; assay: L. infantum intracellular amastigote assay in PMM; format: cell-based; conditions: for IC50: Leishmania infantum, read-out: L. infantum IC50; for SI: selectivity index (CC50 / IC50): CC50 / L. infantum IC50
Protocol: (§1) Leishmania infantum MHOM/MA(BE)/67/ITMAP263 amastigotes were collected from the spleen of infected donor Golden hamsters. Primary peritoneal mouse macrophages (PMM) were used as host cells for in vitro assays. PMM were collected from Swiss mice after 2 days of peritoneal stimulation with a 2% suspension of potato starch and maintained in RPMI-1640 medium supplemented with 200 mM L-glutamine, antibiotics and 5% FCS at 37°C and 5% CO2. Promastigotes of L. infantum chagasi (luciferase) (MHOM/BR/2005/NLC) obtained as described in Reimão et al.,[27] were grown in M199 medium supplemented with 10% FCS, 0.25% hemin, 32 μg/ml hygromycin and 2% sterile human urine at 25°C and 5% CO2.
(§2) Stock solutions of the compounds at 20 mM were prepared in 100% DMSO. Next, the compounds were serially pre-diluted in DMSO followed by a further dilution in demineralized water to assure a final in-test DMSO concentration below 1%. The compounds were tested at 4-fold dilutions starting at 64 μM.
For the antileishmania in vitro assays, 3×10^4 PMM/well were seeded in 96-well plates. After 24h, 5×10^5 amastigotes/well were added and incubated for 2h at 37°C. Next, the compounds in 4-fold serial dilutions were added and the plates were further incubated for 5 days (37°C, 5% CO2). Parasite burdens were assessed using an inverted microscope after Giemsa staining. The results were expressed as percent reduction in parasite burdens compared to negative control wells (100% growth) and IC50 values were determined. Values represent the geometric mean of at least two independent experiments. Miltefosine was used as the positive control in all plates.

[2] = test system: PMM (Primary Mouse Macrophages); assay: Cytotoxicity on primary peritoneal mouse macrophages; format: cell-based; conditions: Mus musculus, Macrophage, read-out: PMM IC50
Protocol: as §1, §2

MRC-5 cytotoxicity = format: cell-based; conditions: human, MRC-5 cells; S1 Data
[3] = Experimental distribution coefficient (eLogD); format: physicochemical; conditions: pH 7.4
Protocol: To determine the lipophilicity of the compounds, a methodology based on the retention time of molecules in reverse stationary phase (Ascentis RP-Amide HPLC column) was used. The chromatogram was obtained using LC-MS/MS. Test compounds were prepared at 1.0 μg/mL by adding the stock solution at (1:1) mobile phases A:B + internal standard at 200nM (A: 5% methanol in 10mM ammonium acetate pH 7.4, B: 100% methanol), DMSO concentration must be lower than 2%. […] The retention time (in minutes) of each of the eight standards was plotted against their LogD values. The resulting equation for the calibration curve (y = mx + b) was used to calculate the LogD values for the test compounds.

[4] = Mouse liver microsomal stability; format: in vitro ADME; conditions: for microsomal CLint at 0.5 μM: CD1, mouse, liver microsomes
Protocol: The metabolic stability of the compounds was evaluated in human (pool of 200 donors, XenoTech) and mouse liver microsomes (CD1 mouse, GIBCO). Test compounds were prepared at a concentration of 0.5 μM and incubated with 0.25 mg/mL liver microsomes at pH 7.4 and 37°C. The reaction was started by addition of NADPH at […]. Samples were taken at 0, 5, 10, 15, 20 and 30 minutes. The reaction was stopped by the addition of acetonitrile:methanol (1:1) containing an internal standard (tolbutamide at 50 nM). Compounds were quantified by liquid chromatography triple quadrupole mass spectrometry (LC-MS/MS). Peak area ratios (analyte/internal standard) were converted to % remaining using the area ratio at time 0 as 100%. Half-life (t1/2 = ln(2)/k) in minutes and intrinsic clearance (Clint = k x 1000/(0.25)) in μL/min/mg were calculated using a non-linear regression from % remaining versus incubation time. From this plot, the slope (k) was determined. The analysis conditions were: analytical column (Gemini C18, […], Phenomenex), electrospray ionization source (ESI) in positive and negative mode, mobile phase A (water + 0.1% formic acid) and B (acetonitrile + 0.1% formic acid), flow rate of 0.7 mL/min.

[5] = Parallel artificial membrane permeability assay (PAMPA); format: in vitro ADME; conditions: PAMPA, S1 Data; read-out: PAMPA Pe
Protocol: To determine the passive permeability of the compounds, a 96-well plate containing membranes pre-coated with lipids (Corning Gentest # 353015) was used. The solutions of the compounds were prepared by diluting the stock solutions (10mM) in phosphate buffered saline (PBS) pH 6.5 at a final concentration of 10μM. The solutions diluted in PBS pH 6.5 were then added to the donor portion of the plate (300 μl/well), while PBS pH 7.4 (200 μl/well) was added to the acceptor portion. The two portions of the plate were then coupled, and the system was incubated for 5 h at 37°C. At the end of the incubation, samples were collected from the donor and acceptor plates, and then added to plates containing quench solution (10% water and 90% methanol: acetonitrile (50:50) + 50 nM tolbutamide). The final concentrations of compounds in the donor, acceptor, and initial solution (T0) wells were analyzed using LC-MS/MS. The results were used to calculate an effective permeability (Pe) value. The PAMPA assay was performed in triplicate (n = 3).

[6] = 120 h, intracellular amastigotes in PMM, 5 days
[7] = reverse stationary phase HPLC column (Ascentis RP-Amide), S1 Data
[8] = pH 7.4, S1 Data, read-out: MLM CLint
[9] = reverse-phase HPLC retention (Ascentis RP-Amide column), experimental

SMILES | IC50 [1, 6] [µM] | IC50 ([1]; S1 Data) [µM] | IC50 [2] [µM] | CC50 (MRC-5 cytotoxicity) [µM] | chromatographic logD [3, 7] | microsomal CLint at 0.5 μM [4, 8] [µL/min/mg] | Papp at 5 h, 10 μM [5] [×10⁻⁶ cm/s] | L. infantum IC50 ([1]; intracellular amastigotes in PMM, 5 days) | chromatographic logD [3, 9] | SI: selectivity index (CC50 / IC50) [1] | MLM CLint ([4]; S1 Data) [µL/min/mg] | eLogD ([3]; experimental) | MLM CLint ([4]; mouse liver microsome intrinsic clearance) [µL/min/mg] | microsomal CLint at 0.5 μM ([4]; pH 7.4, mouse liver microsome intrinsic clearance, read-out: MLM Clint) [µL/min/mg]
O=C(Cc1ccc(F)cc1)Nc1nc2ccc(F)cc2n1CC1CC1 [Compound 21, Fc1cc2c(nc(NC(=O)Cc3ccc(F)cc3)n2CC4CC4)cc1] | 8.1 | 8.06 | > 64 | 17.4 | 4.12 | 887 | 19.4 |  |  |  |  |  |  | 
O=C(Cc1ccc(Cl)cc1)Nc1nc2cc(F)ccc2[nH]1 [Compound 18, Fc1ccc([nH]c(NC(Cc2ccc(Cl)cc2)=O)n3)c3c1] |  | > 64 | > 64 | > 64 | 4.26 | 366 | 6.04 | poor activity | 3.9 |  |  |  |  | 
CCCn1c(NC(=O)Cc2ccc(F)cc2)nc2c(F)cccc21 [Compound 5, Fc1cccc2c1nc(NC(=O)Cc3ccc(F)cc3)n2CCC] |  | > 64 | > 64 | > 64 | 3.57 |  | 16.2 |  | 3.6 | 1 | 715 |  |  | 
CC(C)(C)n1c(NC(=O)Cc2ccc(F)cc2)nc2cc(F)ccc21 [Compound 19, Fc1cc(nc(NC(=O)Cc2ccc(F)cc2)n3C(C)(C)C)c3cc1] | 19 | 18.6 | > 64 | > 64 | 4.04 | 373 | 6.35 |  | 4 |  |  |  |  | 
Cn1nccc1C(=O)Nc1nc2ccc(C#N)cc2n1CC(F)F [Compound 47, FC(F)Cn1c(cc(C#N)cc2)c2nc1NC(c3ccnn3C)=O] | 8.8 | 8.78 | 22.6 | 12.3 |  |  | 10.6 |  |  | 3 | 383 |  |  | 
Cn1nccc1C(=O)Nc1nc2ccc(C#N)cc2n1CCF [Compound 48, FCCn1c(cc(C#N)cc2)c2nc1NC(c3ccnn3C)=O] | 28 | 27.9 | 32 | 13.7 |  |  | 63.7 |  |  | 1 | 154 |  |  | 
CCCn1c(NC(=O)Cc2ccc(F)cc2)nc2ccccc21 [Compound 2, CCCn1c(nc2c1cccc2)NC(Cc3ccc(cc3)F)=O] | 15 | 14.8 | 32 | > 64 | 3.97 | 2760 | 6.63 |  |  | 2 |  | 4.0 |  | 
CCCn1c(NC(=O)Cc2ccc(F)cc2)nc2cc(F)c(F)cc21 [Compound 6, Fc1cc(n(CCC)c(NC(=O)Cc2ccc(F)cc2)n3)c3cc1F] | 2.2 | 2.19 | > 64 | > 64 | 4.04 |  | 13.6 |  |  | 29 |  |  | 399 | 
CCCn1c(NC(=O)Cc2ccc(F)cc2)nc2ccc(C#N)cc21 [Compound 8, n1c(c2n(CCC)c1NC(=O)Cc3ccc(F)cc3)ccc(C#N)c2] | 46 | 45.6 | 45.2 | > 64 | 3.6 | 226 | 30.7 |  |  | 1 |  | 3.6 |  | 225
CC(C)(C)Cn1c(NC(=O)c2ccn(CCO)n2)nc2ccc(C#N)cc21 [Compound 38, O=C(c1nn(CCO)cc1)Nc2nc(ccc(C#N)c3)c3n2CC(C)(C)C] |  | > 64 | > 64 | > 64 | 4.03 | < 23 | 7.54 |  | 4 | 1 |  |  |  | 
Cn1nccc1C(=O)Nc1nc2ccc(C#N)cc2n1CC(C)(C)O [Compound 49, O=C(c1ccnn1C)Nc2nc(ccc(C#N)c3)c3n2CC(O)(C)C] | 36 | 36 | > 64 | > 64 |  | < 23 | 9.39 |  |  | 2 |  |  |  | 
Cn1nccc1C(=O)Nc1nc2ccc(C#N)cc2n1C1CC1 [Compound 31, O=C(c1ccnn1C)Nc2nc(ccc(C#N)c3)c3n2C4CC4] | 30 | 30 | > 64 | > 64 |  | 162 | 14.4 |  |  | 2 |  |  |  | 
CN1CCC(n2c(NC(=O)c3ccnn3C)nc3ccc(C#N)cc32)CC1 [Compound 51, O=C(c1ccnn1C)Nc2nc(ccc(C#N)c3)c3n2C4CCN(C)CC4] | 20 | 20.2 | 50.8 | > 64 |  |  | 2.91 |  |  | 3 | 72 |  |  | 
